Experimental data taken from patent US20240376154A1, “BIS-INTERCALATING PEPTIDES, CONJUGATES AND METHODS OF USE” (ZYMEWORKS BC INC., priority 2023, published 2024).

Tests used:
[1] = system: IGROV-1 (Ovarian Adenocarcinoma); assay: Cell proliferation assay, IGROV-1; type: cell-based; details: 5 nights
Protocol: (§1) The ability of Compound 419 and Compound 424 to inhibit proliferation of tumour cells in vitro was measured by a cell proliferation assay using the following tumour cell lines: IGROV-1 (Ovarian Adenocarcinoma, NCI), JEG-3 (Placental Choriocarcinoma, AddexBio (C0030003)) and OVKATE (Ovarian Adenocarcinoma, Japanese Collection of Research Bioresources (JCRB) (JCRB1044)).
(§2) Cell lines were cultured as per vendor instructions prior to running the cell proliferation assay. Briefly, on the day prior to adding compound, cells (50 μL/well, 1000 cells/well) were added to sterile, tissue culture (TC)-treated, 384-well plates (ThermoFisher Scientific, Catalogue #164610) and incubated overnight at 37° C./5% CO2 to allow the cells to adhere to the plate surface. The next day, in a sterile, V-bottom, 96-well plate, compounds were titrated 1:3 in complete growth medium, creating a 10-point dose response titration with compounds at 3.5-times the desired final concentration. Control wells with no compound (growth medium only) were included for each compound titration in 96-well dilution plates. 20 uL from the 10-point dose response titration were added to the 384-well plate containing the seeded cells, in duplicate. Plates were incubated at 37° C./5% CO2 for 5 nights. After 5-night incubation, cell viability was quantified by the addition of 15 uL/well of CellTiter-Glo® (Promega, Catalogue #G7572) and incubation at room temperature for 30 minutes. After 30-minute incubation, luminescence was measured using a microplate luminometer (BioTek® Synergy™ H1 Microplate Reader). The resulting relative light units (RLU values) were converted to % cytotoxicity using the growth medium only control wells mentioned above:
(§3) Data was fit into 4-parameter logistic to curves using non-linear regression methods available with GraphPad Prism software (GraphPad Software, Inc.).

[2] = system: JEG-3 (Placental Choriocarcinoma); assay: Cell proliferation assay, JEG-3; type: cell-based; details: 5 nights
Protocol: as §1, §2, §3

[3] = system: OVKATE (Ovarian Adenocarcinoma); assay: Cell proliferation assay, OVKATE; type: cell-based; details: 5 nights
Protocol: as §1, §2, §3

[4] = system: tumour cells (at least 4 of a panel of ovarian, breast, lung, pancreatic, placenta, colon cell lines); assay: In vitro cytotoxicity (cell proliferation, CellTiter-Glo), average over tumour cell line panel; type: cell-based; details: average pIC50 on all cell lines tested; 5 nights incubation; CellTiter-Glo
How it was run: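 Each cell line seeded at ~1000 cells/well and left to adhere overnight, then given a 10-point 1:3 compound titration for 5 nights at 37° C, 5% CO2. Viability read by CellTiter-Glo luminescence; IC50 per line, reported as pIC50 averaged across at least 4 lines.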

[5] = Lipophilicity by experimental HPLC retention time; type: physicochemical; details: HPLC retention time as measure of lipophilicity; C18, 10 to 90% CH3CN/H2O with 0.1% FA over 25 min
How it was run: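 Reversed-phase HPLC with diode array detection on a Kinetex EVO C18 150×4.6, 2.6 μm column. Gradient 10 to 90% CH3CN/H2O with 0.1% FA over 25 min; retention time serves as the lipophilicity measure.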

[6] = Stability in female mouse plasma; type: in vitro ADME; details: 37° C., 24 h
Protocol: The stability of exemplary compounds of general Formula I in mouse plasma was evaluated as follows.
Compounds were incubated at 1 μM in duplicate in female mouse plasma, 250 μL final volume, at 37° C. for 24 h. Aliquots were sampled at 0, 15, 30, 60, 120, 240, 480 and 1440 min. Proteins were precipitated by addition of 5 volumes of cold methanol. After centrifugation 10000×g for 10 min, the residual concentration of compound in the supernatant was measured using an appropriate LC-MS/MS method. The measured concentrations were expressed as a function of time through a one-phase decay exponential regression calculated using GraphPad Prism software (GraphPad Software, Inc.) to generate the plasma half-life for each compound.

herring sperm DNA = assay: DNA melting temperature by differential scanning calorimetry (DSC); type: binding; details: DSC; herring sperm DNA; DNA melting temperature = 68° C.
How it was run: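 Herring sperm DNA at 1 mg/mL (1.4 mM base pair) in BPE buffer, pH 7.0, equilibrated with test article (10 mM DMSO stock) for >3 h, insolubles removed by centrifugation. Scanned 25 to 110° C. at 1° C./min; melting temperature taken from the DSC melting curve.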

SMILES	EC50 [1] [nM]	EC50 [2] [nM]	EC50 [3] [nM]	pIC50 (average) [4]	HPLC [5] [min]	plasma stability (in words) ([6]; 1 μM)	DNA melt (° C.) (herring sperm DNA) [°C]	half-life at 1 μM ([6]; female, mouse, plasma) [h]
CCCN1CC(=O)N(C)[C@@H](C(C)C)C(=O)NC[C@@H](NC(=O)c2nc3ccccc3cc2O)C(=O)N2CCCC[C@H]2C(=O)NCC(=O)N(CCC)CC(=O)N(C)[C@@H](C(C)C)C(=O)NC[C@@H](NC(=O)c2nc3ccccc3cc2O)C(=O)N2CCCC[C@H]2C(=O)NCC1=O [Compound 419, N,N′-((7R,11S,19aS,26R,30S,38aS)-11,30-diisopropyl-12,31-dimethyl-6,10,13,16,19,25,29,32,35,38-decaoxo-15,34-dipropylhexatriacontahydro-2H,6H-dipyrido[1,2-a:1′,2′-q][1,4,7,10,13,17,20,23,26,29]decaazacyclodotriacontine-7,26-diyl)bis(3-hydroxyquinoline-2-carboxamide)]	11.5	6.9	24.1	–	–	–	–	–
CC(C)[C@H]1C(=O)NC[C@@H](NC(=O)c2nc3ccccc3cc2O)C(=O)N2CCCC[C@H]2C(=O)NCC(=O)N(C(C)C)CC(=O)N(C)[C@@H](C(C)C)C(=O)NC[C@@H](NC(=O)c2nc3ccccc3cc2O)C(=O)N2CCCC[C@H]2C(=O)NCC(=O)N(C(C)C)CC(=O)N1C [Compound 424, N,N′-((7R,11S,19aS,26R,30S,38aS)-11,15,30,34-tetraisopropyl-12,31-dimethyl-6,10,13,16,19,25,29,32,35,38-decaoxohexatriacontahydro-2H,6H-dipyrido[1,2-a:1′,2′-q][1,4,7,10,13,17,20,23,26,29]decaazacyclodotriacontine-7,26-diyl)bis(3-hydroxyquinoline-2-carboxamide)]	54	55.7	–	–	–	–	–	–
C[C@H]1NC(=O)[C@@H]2CCCCN2C(=O)CN(C)C(=O)CNC(=O)[C@@H]2CCCCN2C(=O)[C@H](NC(=O)c2nc3ccccc3cc2O)[C@@H](C)NC(=O)[C@@H]2CCCCN2C(=O)CN(C)C(=O)CNC(=O)[C@@H]2CCCCN2C(=O)[C@@H]1NC(=O)c1nc2ccccc2cc1O [Quinaldopeptin, quinaldopeptin, reference compound]	6.5	9.8	14.8	8.0	16.7	stability over the course of the experiment	–	–
CC(C)[C@H]1C(=O)OC[C@@H](NC(=O)c2nc3ccccc3cc2O)C(=O)N2CCCC[C@H]2C(=O)NCC(=O)N(C)CC(=O)N(C)[C@@H](C(C)C)C(=O)OC[C@@H](NC(=O)c2nc3ccccc3cc2O)C(=O)N2CCCC[C@H]2C(=O)NCC(=O)N(C)CC(=O)N1C [Sandramycin, N,N′-((7R,11S,19aS,26R,30S,38aS)-11,30-diisopropyl-12,15,31,34-tetramethyl-6,10,13,16,19,25,29,32,35,38-decaoxodotriacontahydro-2H,6H,10H,25H-dipyrido[2,1-b1:2′,1′-l][1,17]dioxa[4,7,10,13,20,23,26,29]octaazacyclodotriacontine-7,26-diyl)bis(3-hydroxyquinoline-2-carboxamide), reference compound]	1.6	3.3	0.8	9.0	21.6	–	102	5.9
